Experimental data reported in US20220378707A1, “1-(((2S,3S,4S)-3-ETHYL-4-FLUORO-5-OXOPYRROLIDIN-2-YL)METHOXY)-7-METHOXYISOQUINOLINE-6-CARBOXAMIDE COMBINATIONS AND ORAL DOSAGE FORMS” (Pfizer Inc., priority 2019, published 2022).

Assays:
[1] = Particle size of PF-06650833 by milling process; type: physicochemical; conditions: PF-06650833 particles
[2] = system: PBMC and HUVEC+T cell receptor (TCR) ligands; experiment: BioMAP SAg system; type: cell-based, human; conditions: for Inhibition of biomarker readouts in the SAg system: T cell-driven Th1 vascular inflammation, concentrations of FIGS. 12-16
Text: (§1) The BioMAP systems consist of human primary cell-based systems designed to model different aspects of the human body in an in vitro format. The 12 systems tested characterized the test compounds across a broad set of systems modeling various human disease states. BioMAP systems were constructed with one or more primary cell types from healthy human donors, with stimuli (such as cytokines or growth factors) added to capture relevant signaling networks that naturally occur in human tissue or pathological conditions. Vascular biology was modeled in both a Th1 (3C system) and a Th2 (4H system) inflammatory environment, as well as in a Th1 inflammatory state specific to arterial smooth muscle cells (CASM3C system). Additional systems recapitulated aspects of the systemic immune response that included monocyte-driven Th1 inflammation (LPS system) or T cell stimulation (SAg system), chronic Th1 inflammation driven by macrophage activation (IMphg system) and the T cell-dependent activation of B cells that occurs in germinal centers (BT system). The BE3C system (Th1) and the BF4T system (Th2) represented airway inflammation of the lung, while the MyoF system modeled myofibroblast-lung tissue remodeling. Lastly, skin biology was addressed in the KF3CT system modeled Th1 cutaneous inflammation and the HDF3CGF system modeled wound healing.
(§2) All cells were from a pool of multiple donors (n=2-6), commercially purchased and handled according to the recommendations of the manufacturers. Human blood derived CD14+ monocytes were differentiated into macrophages in vitro before being added to the IMphg system. Abbreviations were used as follows: human umbilical vein endothelial cells (HUVEC), peripheral blood mononuclear cells (PBMC), human neonatal dermal fibroblasts (HDFn), B cell receptor (BCR), T cell receptor (TCR) and toll-like receptor (TLR). Cell types and stimuli used in each system were as follows:
(§3) 3C system [HUVEC+(IL-1β, TNFα and IFNγ)]; 4H system [HUVEC+(IL-4 and histamine)]; LPS system [PBMC and HUVEC+LPS (TLR4 ligand)]; SAg system [PBMC and HUVEC+T cell receptor (TCR) ligands]; BT system [CD19+B cells and PBMC+(α-IgM and TCR ligands)]; BF4T system [bronchial epithelial cells and HDFn+(TNFα and IL-4)]; BE3C system [bronchial epithelial cells+(IL-1p, TNFα and IFNγ)]; CASM3C system [coronary artery smooth muscle cells+(IL-1p, TNFα and IFNγ)]; HDF3CGF system [HDFn+(IL-1β, TNFα, IFNγ, EGF, bFGF and PDGF-BB)]; KF3CT system [keratinocytes and HDFn+(IL-1β, TNFα and IFNγ)]; MyoF system [differentiated lung myofibroblasts+(TNFα and TGFβ)]; and IMphg system [HUVEC and M1 macrophages+Zymosan (TLR2 ligand)].
(§4) Systems were derived from either single cell types or co-culture systems. Adherent cell types were cultured in 96 or 384-well plates until confluence, followed by the addition of PBMC (SAg and LPS systems). The BT system consisted of CD19+B cells co-cultured with PBMC and stimulated with a BCR activator and low levels of TCR stimulation. Test agents were prepared in DMSO (final concentration <0.1%) and were added 1 hour before stimulation, and remained in culture for 24 hours or as otherwise indicated (48-hrs, MyoF system; 72-hrs, BT system (soluble readouts); 168-hrs, BT system (secreted IgG)). Each plate contained drug controls (e.g., legacy control test agent colchicine at 1.1 μM), negative controls (e.g., non-stimulated conditions) and vehicle controls (e.g., 0.1% DMSO) appropriate for each system. Direct ELISA was used to measure biomarker levels of cell-associated and cell membrane targets. Soluble factors from supernatants were quantified using either HTRF® detection, bead-based multiplex immunoassay or capture ELISA. Overt adverse effects of test agents on cell proliferation and viability (cytotoxicity) were detected by sulforhodamine B (SRB) staining, for adherent cells, and alamarBlue® reduction for cells in suspension.

[3] = system: CD19+B cells and PBMC+(α-IgM and TCR ligands); experiment: BioMAP BT system; type: cell-based, human; conditions: for Inhibition of biomarker readouts in the BT system: T cell dependent B cell activation, concentrations of FIGS. 12-14; for B cell proliferation in the BT system: concentrations of FIGS. 13-14
Text: as §1, §2, §3
as §4, with “suspension. […]” for “suspension.”

[4] = system: HDFn+(IL-1β, TNFα, IFNγ, EGF, bFGF and PDGF-BB); experiment: BioMAP HDF3CGF system; type: cell-based, human; conditions: wound healing, Th1-type inflammation; concentrations of FIGS. 12-16
Text: as §1, §2, §3
as §4, with “The BT system consisted of CD19+B cells co-cultured with PBMC and stimulated with a BCR activator and low levels of TCR stimulation.” left out, “Each plate contained drug controls (e.g., legacy control test agent colchicine at 1.1 μM), negative controls (e.g., non-stimulated conditions) and vehicle controls (e.g., 0.1% DMSO) appropriate for each system. Direct ELISA was used to measure biomarker levels of cell-associated and cell membrane targets.” left out

[5] = system: PBMC and HUVEC+LPS (TLR4 ligand); experiment: BioMAP LPS system; type: cell-based, human; conditions: monocyte-driven Th1 inflammation, concentrations of FIGS. 12-14
Text: as §1, §2, §3
as §4, with “suspension. […]” for “suspension.”

[6] = Combination oral pharmacokinetic study of PF-06651600 and PF-06650833 in rat; conditions: male Wistar Han rat, PF-06651600 10 and 50 mg/kg, PF-06650833 30 and 100 mg/kg
Method: Doses of 1-((2S,5R)-5-((7H-pyrrolo[2,3-d]pyrimidin-4-yl)amino)-2-methylpiperidin-1-yl)prop-2-en-1-one were 10 and 50 mg/kg and 1-(((2S,3S,4S)-3-ethyl-4-fluoro-5-oxopyrrolidin-2-yl)methoxy)-7-methoxyisoquinoline-6-carboxamide were 30 and 100 mg/kg in male Wistar Han.

[7] = system: human primary cell-based systems; experiment: BioMAP panel of 12 systems; conditions: BioMAP profile, PF-06651600 200-5400 nM
Text: as §1, §2, §3
as §4, with “suspension. […]” for “suspension.”

[8] = listed as 1-((2S,5R)-5-((7H-Pyrrolo[2,3-d]pyrimidin-4-yl)amino)-2-methylpiperidin-1-yl)pro
[9] = listed as 1-((2S,5R)-5-((7H-pyrrolo[2,3-d]pyrimidin-4-yl)amino)-2-methylpiperidin-1-yl)pro

Structure (SMILES)	Particle size D[4, 3] [1] [μm]	Particle size D[v, 0.1] [1] [μm]	Particle size D[v, 0.5] [1] [μm]	Particle size D[v, 0.9] [1] [μm]	Inhibition of biomarker readouts in the SAg system [2, 8]	Inhibition of biomarker readouts in the SAg system [2, 9]	Proliferation of T cells in the SAg system ([2]; concentrations of FIGS. 13-14)	Inhibition of biomarker readouts in the BT system [3, 8]	Inhibition of biomarker readouts in the BT system [3, 9]	B cell proliferation in the BT system [3, 8]	B cell proliferation in the BT system [3, 9]	Inhibition of biomarker readouts in the HDF3CGF system [4]	Inhibition of biomarker readouts in the LPS system [5, 8]	Inhibition of biomarker readouts in the LPS system [5, 9]	Effects of PF-06650833 on the pharmacokinetics of PF-06651600 [6]	Immunomodulatory activities: Decreased Activity ([7]; PF-06650833 19-500 nM, tofacitinib 37-1000 nM)	Tissue Remodeling Activities: Decreased Activity [7]
CC[C@@H]1[C@H](F)C(=O)N[C@@H]1COc1nccc2cc(C(N)=O)c(OC)cc12 [Unmilled, 1-(((2S,3S,4S)-3-Ethyl-4-fluoro-5-oxopyrrolidin-2-yl)methoxy)-7-methoxyisoquinoline-6-carboxamide]	28.4	4.6	22.3	61.6	–	–	–	–	–	–	–	–	–	–	–	–	–
CC[C@@H]1[C@H](F)C(=O)N[C@@H]1COc1nccc2cc(C(N)=O)c(OC)cc12 [Fitzmilled, 1-(((2S,3S,4S)-3-Ethyl-4-fluoro-5-oxopyrrolidin-2-yl)methoxy)-7-methoxyisoquinoline-6-carboxamide]	17.0	2.0	10.0	35.0	–	–	–	–	–	–	–	–	–	–	–	–	–
CC[C@@H]1[C@H](F)C(=O)N[C@@H]1COc1nccc2cc(C(N)=O)c(OC)cc12 [Jetmilled, 1-(((2S,3S,4S)-3-Ethyl-4-fluoro-5-oxopyrrolidin-2-yl)methoxy)-7-methoxyisoquinoline-6-carboxamide]	4.6	0.7	3.9	9.6	–	–	–	–	–	–	–	–	–	–	–	–	–
C=CC(=O)N1C[C@H](Nc2ncnc3[nH]ccc23)CC[C@@H]1C [PF-06651600, 1-((2S,5R)-5-((7H-Pyrrolo[2,3-d]pyrimidin-4-yl)amino)-2-methylpiperidin-1-yl)prop-2-en-1-one]	–	–	–	–	IL-8	sIL-s8 levels were reduced	inhibited	sIgG, sIL-17A, sIL-17F, sIL-6, and TNFα	sIgG, sIL-17A, sIL-17F, sIL-6, and sTNFα	inhibited	B cell anti-proliferative activity	PA-I	TNFα	sTNFα levels were reduced	no significant effects	*sIgG, B cell proliferation, T cell proliferation	PAI-I
